What follows are cell lines tested with C1=CC2=C(C=C(C(=C2N=C1)O)N=NC3=CC4=C(C=C3)C=C(C=C4)S(=O)(=O)O)S(=O)(=O)O + CS(=O)(=O)CCNCc1ccc(-c2ccc3ncnc(Nc4ccc(OCc5cccc(F)c5)c(Cl)c4)c3c2)o1 [Lapatinib] (partner 2 µM) (assay: relative viability (nuclei count vs DMSO), 5 days (fraction); higher = more cells survive). Conditions: first compound 0.08 µM.
Summary of the method: (§1)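 Relative viability is defined as nuclei in treated wells over nuclei in vehicle wells. Duplicate plates were run and medians reported. Lung cancer cell lines in 1536-well plates were dosed by pin tool one day after seeding, with one drug or with a fixed anchor-drug dose plus five library-drug doses (not always all listed) in √10 steps, and nuclei were counted after 5 days.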
NCI-H2087 gave a relative viability of 1.16.
SK-MES-1 showed a relative viability of 0.482.
With H3255 the relative viability was 0.283.
In the case of COR-L23, the relative viability is reported as 1.3.
COR-L 105 showed a relative viability of 0.401.
Cell Line IA-LM has a relative viability of 0.681.
Work on LOU-NH91 yielded a relative viability of 0.868.
NCI-H2170 gave a relative viability of 0.267.
Work on NCI-H2405 yielded a relative viability of 1.04.
HOP-62 was tested, and the relative viability was 1.32.
For HCC-44, the relative viability was 1.08.
A549 was tested, and the relative viability was 1.08.
In the case of LU99A, the relative viability is reported as 0.934.
NCI-H1395 gave a relative viability of 1.14.
Cell Line NCI-H1299 has a relative viability of 0.959.
NCI-H1793 was tested, and the relative viability was 0.769.

Same assay, conditions: first compound 0.253 µM
In the case of NCI-H727, the relative viability is reported as 0.873.
In the case of NCI-H1650, the relative viability is reported as 0.739.
Work on EBC-1 yielded a relative viability of 0.242.
NCI-H1703 showed a relative viability of 0.886.
NCI-H1993 gave a relative viability of 0.71.
SW 1573 showed a relative viability of 1.
For NCI-H838, the relative viability was 0.926.
Cell Line NCI-H520 has a relative viability of 0.791.
NCI-H2126 gave a relative viability of 0.723.
Work on EMC-BAC-2 yielded a relative viability of 0.881.
In the case of NCI-H2085, the relative viability is reported as 0.783.
For Calu-6, the relative viability was 1.03.
HCC-366 showed a relative viability of 0.954.
NCI-H1666 showed a relative viability of 0.606.
For NCI-H596, the relative viability was 1.02.
Work on LK-2 yielded a relative viability of 0.883.
NCI-H2087 showed a relative viability of 0.981.
SK-MES-1 gave a relative viability of 0.444.
In the case of H3255, the relative viability is reported as 0.236.
Cell Line COR-L23 has a relative viability of 0.971.
COR-L 105 gave a relative viability of 0.394.
IA-LM gave a relative viability of 0.718.
LOU-NH91 showed a relative viability of 0.79.
NCI-H2170 was tested, and the relative viability was 0.272.
NCI-H2405 gave a relative viability of 1.07.
For HOP-62, the relative viability was 0.925.
HCC-44 gave a relative viability of 0.975.
A549 was tested, and the relative viability was 0.991.
Work on LU99A yielded a relative viability of 0.974.
In the case of NCI-H1395, the relative viability is reported as 1.18.
Work on NCI-H1299 yielded a relative viability of 0.913.
NCI-H1793 was tested, and the relative viability was 1.

Same assay, conditions: first compound 0.8 µM
For NCI-H727, the relative viability was 0.768.
NCI-H1650 was tested, and the relative viability was 0.714.
For EBC-1, the relative viability was 0.27.
With NCI-H1703 the relative viability was 1.06.
For NCI-H1993, the relative viability was 0.801.
Cell Line SW 1573 has a relative viability of 1.04.
NCI-H838 gave a relative viability of 0.934.
Cell Line NCI-H520 has a relative viability of 0.833.
Cell Line NCI-H2126 has a relative viability of 0.723.
EMC-BAC-2 showed a relative viability of 0.877.
In the case of NCI-H2085, the relative viability is reported as 0.749.
Calu-6 gave a relative viability of 1.01.
HCC-366 gave a relative viability of 1.03.
For NCI-H1666, the relative viability was 0.473.
NCI-H596 gave a relative viability of 0.977.
LK-2 showed a relative viability of 0.839.
With NCI-H2087 the relative viability was 1.02.
For SK-MES-1, the relative viability was 0.468.
For H3255, the relative viability was 0.255.
For COR-L23, the relative viability was 0.92.
Work on COR-L 105 yielded a relative viability of 0.378.
Work on IA-LM yielded a relative viability of 0.707.
LOU-NH91 was tested, and the relative viability was 0.755.
Cell Line NCI-H2170 has a relative viability of 0.271.
For NCI-H2405, the relative viability was 0.979.
For HOP-62, the relative viability was 0.972.
HCC-44 was tested, and the relative viability was 0.96.
A549 was tested, and the relative viability was 0.972.
LU99A showed a relative viability of 0.949.
NCI-H1395 showed a relative viability of 1.19.
With NCI-H1299 the relative viability was 0.944.

Same assay, conditions: first compound 2.53 µM
NCI-H727 gave a relative viability of 0.978.
Cell Line NCI-H1650 has a relative viability of 0.821.
For EBC-1, the relative viability was 0.2.
In the case of NCI-H1703, the relative viability is reported as 1.01.
NCI-H1993 gave a relative viability of 0.723.
SW 1573 showed a relative viability of 1.14.
Work on NCI-H838 yielded a relative viability of 0.926.
For NCI-H520, the relative viability was 0.798.
In the case of NCI-H2126, the relative viability is reported as 0.777.
Cell Line EMC-BAC-2 has a relative viability of 0.927.
Cell Line NCI-H2085 has a relative viability of 0.818.
With Calu-6 the relative viability was 1.02.
HCC-366 was tested, and the relative viability was 1.02.
In the case of NCI-H1666, the relative viability is reported as 0.718.
NCI-H596 was tested, and the relative viability was 1.01.
LK-2 showed a relative viability of 0.939.
For NCI-H2087, the relative viability was 1.03.
SK-MES-1 was tested, and the relative viability was 0.464.
H3255 was tested, and the relative viability was 0.246.
With COR-L23 the relative viability was 1.
COR-L 105 gave a relative viability of 0.377.
With IA-LM the relative viability was 0.796.
LOU-NH91 gave a relative viability of 0.781.
NCI-H2170 was tested, and the relative viability was 0.292.
Cell Line NCI-H2405 has a relative viability of 1.02.
For HOP-62, the relative viability was 1.05.
In the case of HCC-44, the relative viability is reported as 1.05.
In the case of A549, the relative viability is reported as 0.947.
LU99A showed a relative viability of 0.972.
NCI-H1395 was tested, and the relative viability was 1.01.
NCI-H1299 showed a relative viability of 0.956.
NCI-H1793 gave a relative viability of 0.651.

Same assay, conditions: first compound 8 µM
Cell Line NCI-H727 has a relative viability of 0.701.
Work on NCI-H1650 yielded a relative viability of 0.734.
EBC-1 was tested, and the relative viability was 0.238.
NCI-H1703 gave a relative viability of 1.01.
NCI-H1993 was tested, and the relative viability was 0.589.
For SW 1573, the relative viability was 0.353.
In the case of NCI-H838, the relative viability is reported as 1.06.
For NCI-H520, the relative viability was 0.848.
With NCI-H2126 the relative viability was 0.759.
Work on EMC-BAC-2 yielded a relative viability of 0.74.
With NCI-H2085 the relative viability was 0.842.
For Calu-6, the relative viability was 1.03.
With HCC-366 the relative viability was 1.02.
NCI-H1666 showed a relative viability of 0.618.
Cell Line NCI-H596 has a relative viability of 1.01.
In the case of LK-2, the relative viability is reported as 0.718.
For NCI-H2087, the relative viability was 1.02.
SK-MES-1 was tested, and the relative viability was 0.546.
H3255 was tested, and the relative viability was 0.237.
COR-L23 was tested, and the relative viability was 1.15.
COR-L 105 showed a relative viability of 0.358.
IA-LM was tested, and the relative viability was 0.793.
LOU-NH91 was tested, and the relative viability was 0.781.
With NCI-H2170 the relative viability was 0.286.
With NCI-H2405 the relative viability was 1.
In the case of HOP-62, the relative viability is reported as 0.993.
With HCC-44 the relative viability was 1.09.
A549 gave a relative viability of 1.01.
Work on LU99A yielded a relative viability of 1.14.
Work on NCI-H1395 yielded a relative viability of 0.966.
With NCI-H1299 the relative viability was 0.939.
NCI-H1793 showed a relative viability of 0.59.

These cell lines were tested with C1=CC2=C(C=C(C(=C2N=C1)O)N=NC3=CC4=C(C=C3)C=C(C=C4)S(=O)(=O)O)S(=O)(=O)O + C[C@@H](Oc1cc(-c2cnn(C3CCNCC3)c2)cnc1N)c1c(Cl)ccc(F)c1Cl [Crizotinib] (partner 1 µM) in the same assay as above. Conditions: first compound 0.08 µM.
Summary of the method: as §1
NCI-H727 gave a relative viability of 1.17.
NCI-H1650 showed a relative viability of 1.05.
EBC-1 showed a relative viability of 0.231.
Cell Line NCI-H1703 has a relative viability of 0.795.
Cell Line NCI-H1993 has a relative viability of 0.866.
In the case of SW 1573, the relative viability is reported as 0.842.
For NCI-H838, the relative viability was 0.992.
Cell Line LCLC-103H has a relative viability of 1.16.
Work on NCI-H520 yielded a relative viability of 0.973.
Cell Line NCI-H2126 has a relative viability of 1.09.
For EMC-BAC-2, the relative viability was 0.777.
